# Results as given in PubChem BioAssay (NCI).
#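 Grown in 96-well plates, cells were treated for 48 hours with each compound at five concentrations. Insufficient inhibition: endpoint recorded as highest concentration tested. TGI: concentration producing complete growth inhibition.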
# Tests used:
# Test in all cases: NCI anticancer screen, dose series, 48 h
# [1] = system: HCC-2998 colon
# [2] = system: MALME-3M melanoma
# [3] = system: OVCAR-8 ovarian
# [4] = system: COLO 205 colon
# [5] = system: CCRF-CEM leukemia
# [6] = system: UACC-62 melanoma
# [7] = system: SR leukemia
# [8] = system: NCI-H226 lung
# [9] = system: HS 578T breast
# [10] = system: NCI/ADR-RES ovarian
# [11] = system: MOLT-4 leukemia
# [12] = system: SW-620 colon
# [13] = system: MDA-N
# [14] = system: RPMI-8226 leukemia
# [15] = system: HCT-116 colon
# [16] = system: RXF 393 renal
# [17] = system: UO-31 renal
# [18] = system: HCT-15 colon
# [19] = system: SK-OV-3 ovarian
# [20] = system: K-562 leukemia
# [21] = system: SF-295 CNS
# [22] = system: SF-268 CNS
# [23] = system: A498 renal
# [24] = system: NCI-H23 lung
# [25] = system: SN12C renal
# [26] = system: HOP-62 NSCLC
# [27] = system: EKVX NSCLC
# [28] = system: NCI-H460 lung
# [29] = system: ACHN renal
# [30] = system: MCF7 breast
# [31] = system: DU-145 prostate
# [32] = system: 786-0 renal
# [33] = system: TK-10 renal
# [34] = system: CAKI-1 renal
# [35] = system: OVCAR-5 ovarian
# [36] = system: KM12 colon
# [37] = system: SK-MEL-28 melanoma
# [38] = system: HL-60(TB) leukemia
# [39] = system: HOP-92 NSCLC
# [40] = system: OVCAR-3 ovarian
# [41] = system: T-47D breast
# [42] = system: A549 NSCLC
# [43] = system: U251 CNS
# [44] = system: NCI-H522 lung
# [45] = system: BT-549 breast
# [46] = system: HT29 colon
# [47] = system: UACC-257 melanoma
# [48] = system: PC-3 prostate
# [49] = system: LOX IMVI melanoma
# [50] = system: SK-MEL-5 melanoma
# [51] = system: OVCAR-4 ovarian
# [52] = system: MDA-MB-231 breast
# [53] = system: IGROV1 ovarian
# [54] = system: MDA-MB-435
# [55] = system: SF-539 CNS
# [56] = system: SK-MEL-2 melanoma
# [57] = system: SNB-75 CNS
# [58] = system: M14 melanoma
# [59] = system: SNB-19 CNS
smiles,measurement,setting,value
COc1ccc(C2=Nn3c(nc4sc5c(c4c3=O)CCCC5)SC2)cc1,TGI,[1],> 100 µM
same,TGI,[2],> 100 µM
same,TGI,[3],> 100 µM
same,TGI,[4],> 100 µM
same,TGI,[5],> 100 µM
same,TGI,[6],> 100 µM
same,TGI,[7],> 100 µM
same,TGI,[8],> 100 µM
same,TGI,[9],> 100 µM
same,TGI,[10],> 100 µM
same,TGI,[11],> 100 µM
same,TGI,[12],> 100 µM
same,TGI,[13],> 100 µM
same,TGI,[14],> 100 µM
same,TGI,[15],> 100 µM
same,TGI,[16],> 100 µM
same,TGI,[17],> 100 µM
same,TGI,[18],> 100 µM
same,TGI,[19],> 100 µM
same,TGI,[20],> 100 µM
same,TGI,[21],> 100 µM
same,TGI,[22],> 100 µM
same,TGI,[23],> 100 µM
same,TGI,[24],> 100 µM
same,TGI,[25],> 100 µM
same,TGI,[26],> 100 µM
same,TGI,[27],> 100 µM
same,TGI,[28],> 100 µM
same,TGI,[29],> 100 µM
same,TGI,[30],> 100 µM
same,TGI,[31],> 100 µM
same,TGI,[32],> 100 µM
same,TGI,[33],> 100 µM
same,TGI,[34],> 100 µM
same,TGI,[35],> 100 µM
same,TGI,[36],> 100 µM
same,TGI,[37],> 100 µM
same,TGI,[38],> 100 µM
same,TGI,[39],> 100 µM
same,TGI,[40],> 100 µM
same,TGI,[41],> 100 µM
same,TGI,[42],> 100 µM
same,TGI,[43],> 100 µM
same,TGI,[44],> 100 µM
same,TGI,[45],> 100 µM
same,TGI,[46],> 100 µM
same,TGI,[47],> 100 µM
same,TGI,[48],> 100 µM
same,TGI,[49],> 100 µM
same,TGI,[50],> 100 µM
same,TGI,[51],> 100 µM
same,TGI,[52],> 100 µM
same,TGI,[53],> 100 µM
same,TGI,[54],> 100 µM
same,TGI,[55],> 100 µM
C=C1C(O)C2OC(=O)C(=C)C2C(OC(=O)/C(C)=C/C)CC2(C)OC2C2OC12 (stereo not drawn),TGI,[56],38.4 µM
same,TGI,[1],21.6 µM
same,TGI,[2],29 µM
same,TGI,[3],> 100 µM
same,TGI,[4],31.4 µM
same,TGI,[5],> 100 µM
same,TGI,[6],48.2 µM
same,TGI,[7],24.5 µM
same,TGI,[8],> 100 µM
same,TGI,[9],> 100 µM
same,TGI,[10],> 100 µM
same,TGI,[11],31.2 µM
same,TGI,[12],> 100 µM
same,TGI,[13],6.02 µM
same,TGI,[14],7.72 µM
same,TGI,[15],> 100 µM
same,TGI,[16],35.6 µM
same,TGI,[17],81.3 µM
same,TGI,[18],14.5 µM
same,TGI,[19],> 100 µM
same,TGI,[21],50.9 µM
same,TGI,[22],> 100 µM
same,TGI,[23],46.4 µM
same,TGI,[24],35.3 µM
same,TGI,[25],14.8 µM
same,TGI,[26],> 100 µM
same,TGI,[27],33 µM
same,TGI,[28],91.6 µM
same,TGI,[29],15.5 µM
same,TGI,[30],22.6 µM
same,TGI,[31],> 100 µM
same,TGI,[32],42.5 µM
same,TGI,[33],47.2 µM
same,TGI,[34],26.9 µM
same,TGI,[35],83.7 µM
same,TGI,[36],11.6 µM
same,TGI,[57],> 100 µM
same,TGI,[58],> 100 µM
same,TGI,[37],> 100 µM
same,TGI,[38],7.44 µM
same,TGI,[39],65.4 µM
same,TGI,[40],26.2 µM
same,TGI,[41],> 100 µM
same,TGI,[42],> 100 µM
same,TGI,[43],> 100 µM
same,TGI,[44],15.6 µM
same,TGI,[45],27.2 µM
same,TGI,[46],33.7 µM
same,TGI,[47],> 100 µM
same,TGI,[48],54.4 µM
same,TGI,[49],29.7 µM
same,TGI,[50],> 100 µM
same,TGI,[51],> 100 µM
same,TGI,[52],37.9 µM
same,TGI,[59],> 100 µM
same,TGI,[53],> 100 µM
same,TGI,[54],> 100 µM
same,TGI,[55],> 100 µM
